{
  "source": "patent US20260315436A1",
  "about": "“METHOD OF TREATING DISORDERS WITH SURF1 MALFUNCTION” (Cure Mito Foundation, priority 2023, published 2026)",
  "assay_type_in_all_cases": "cell-based, human",
  "key": {"[1]": {"system": "SURF1-mutant midbrain organoids", "assay": "Lactate released in the media by SURF1-mutant midbrain organoids", "conditions": "0.1 μM, 1 week; vs DMSO; Mann-Whitney ****p<0.0001", "protocol": "(§1) The effect of Sertaconazole in brain organoids carrying mutations in the gene SURF1 was measured.\n(§2) FIG. 29A depicts lactate released in the media by SURF1-mutant midbrain organoids compared to isogenic control organoids. There is an aberrant increase of lactate release by SURF1-mutant organoids. FIG. 29B depicts quantification of lactate in the media of SURF1-mutant midbrain organoids that were treated with either DMSO vehicle or 0.1 μM Sertaconazole for 1 week. […] SURF1-mutant midbrain organoids were treated with either the DMSO vehicle or 0.1 μM Sertaconazole for 1 week. […] FIG. 29D depicts representative images of SURF1-mutant midbrain organoids treated with either the DMSO vehicle or Sertaconazole.\nFIG. 29A depicts lactate released in the media by SURF1-mutant midbrain organoids compared to isogenic control organoids. The amount of lactate was quantified using a commercial kit. […] FIG. 29B depicts quantification of lactate in the media of SURF1-mutant midbrain organoids that were treated with either DMSO vehicle or 0.1 μM Sertaconazole for 1 week Media was collected and analyzed for lactate content using a commercial kit. […] SURF1-mutant midbrain organoids were treated with either the DMSO vehicle or 0.1 μM Sertaconazole for 1 week. […] Significant values were calculated using the non-parametric Mann-Whitney test. […]"}, "[2]": {"system": "SURF1-mutant neurons", "assay": "Neurite outgrowth in SURF1-mutant neurons (MAP2 high-content imaging)", "protocol": "The effect of Sertaconazole in human neurons carrying mutations in the gene SURF1 was measured. Hit compounds were filtered and selected to test their effect on neuronal morphogenesis. CRISPR/Cas9 engineered isogenic SURF1 mutant iPSCs on which neural commitment via overexpression of NGN2 was forced were used.\n(§3) FIG. 28A depicts quantification of total neurite area in SURF1-mutant neurons. Each value represents the total neurite area in each well of a 96-well plate. Significant values were calculated using the non-parametric Mann-Whitney test and defective neurite development in SURF1-mutant cells was found FIG. 28B depicts quantification of total neurite area in SURF I-mutant neurons treated with either the DMSO vehicle or Sertaconazole at different concentrations. Neurite area was measured 5 days after induction of NGN2 overexpression, using high-content image analysis of MAP2-positive stained neuronal cells. Each value represents the total neurite area in each well of a 96-well plate.\nHit compounds were filtered and selected to test their effect on neuronal morphogenesis CRISPR/Cas9 engineered isogenic SURF1 mutant iPSCs on which neural commitment via overexpression of NGN2 was forced were used.\nas §3, with “plate. […]” for “plate. Significant values were calculated using the non-parametric Mann-Whitney test and defective neurite development in SURF1-mutant cells was found”, “in SURF1-mutant” for “in SURF I-mutant”, “plate. […] FIG. 28C depicts representative images of SURF1 mutant neurons treated with either the DMSO vehicle or Sertaconazole.” for “plate.”"}, "[3]": {"system": "GM28010 SURF1 mutant fibroblasts", "assay": "Seahorse mitochondrial stress test, fibroblast cell line GM28010 (Experiment 1, single compounds)", "conditions": "48 h", "protocol": "(§4) In order to evaluate selected compounds' impact on mitochondrial function in patient-derived fibroblasts compared to controls, three seahorse assays were conducted, Exp. 1: Fibroblast cell line GM28010—single compounds; Exp. 2. Fibroblast cell line GM28010—combination of compounds+ Single compounds; and Exp. 3: Fibroblast cell line GM28012—single compounds. Seahorse XF24 Extracellular Flux Analyzers continuously measure oxygen concentration and proton flux in the cell supernatant over time (Wu et al., 2007). The oxygen concentration and proton flux measurements are converted in OCR and ECAR values. This enables a direct quantification of mitochondrial respiration and glycolysis. The aim of the seahorse assays is to evaluate the impact of selected compounds on mitochondrial function in patient-derived fibroblasts compared to controls. Compounds used in the seahorse assays include posacanazole, sertaconazole, glabridin, zinglibroside (ginsenoside Z R1), AM281, cysteamine bitrartate, PF-06447475, losmapimod, telepravir, miltefosine, incyclinide, poziotinib, and methylene blue.\nFibroblast cell line GM28010 is a primary human fibroblast cell line obtained from patients with SURF1 Leigh syndrome. It was purchased from the Coriell Cell Repositories (Camden, NJ, repository number GM28010). Cell line GM00038 was used as a healthy control for GM28010 and is a primary human fibroblast purchased from the Coriell Cell Repositories (Camden, NJ, repository number GM00038).\nFibroblasts were grown in glucose according to recommendation.\nCells were plated in XF96 plates in culture medium and were plated at 10,000 cells/well.\nThe day after plating, cells were treated with the compounds in Table 1. The treatments were completed in glucose medium and galactose medium. The compounds were tested at for 48 hours. The compounds were incubated at (37 C, 5% CO2) until the day of the experiment.\n*Fibroblasts were run at passage numbers: GM28010 SURF1 Fibroblasts P5; GM00038F controls P9.\n• Assay Medium: 10 mM glucose or galactose DMEM supplemented with 2 mM glutamine and 1 mM pyruvate. • Injection Ports for basal glucose: Port A: 2 μM oligomycin; Port B: 2.5 μM FCCP; Port C: 4 μM FCCP; and Port D: 2 μM rotenone and antimycin A.\nData were normalized to cell number per well after the run. The Hoechst-stained nuclei were counted with the Operetta High-Content Imager.\n(§5) • Basal Oxygen Consumption (OCR): This reflects the cellular oxygen usage under basal conditions, encompassing both energy production (ATP turnover) and background oxygen leak from the mitochondria. • Oligomycin Injection: Oligomycin is a compound that inhibits ATP synthase, an enzyme crucial for ATP production within mitochondria. • Oligomycin-resistant Respiration: After oligomycin injection, minimal oxygen consumption persists, representing non-ATP linked oxygen leak from the mitochondria, often termed proton leak. • ATP-linked Respiration: This value is derived by subtracting the oligomycin-resistant respiration from the basal OCR. It signifies the oxygen consumption specifically linked to ATP production through mitochondrial oxidative phosphorylation. • Mitochondrial Bioenergetic Efficiency: This parameter reflects the percentage decrease in oxygen consumption observed after oligomycin injection, indicating the mitochondria's efficiency in utilizing oxygen for ATP generation. • FCCP Injection: FCCP is a chemical that disrupts the link between mitochondrial electron transport and ATP production. • Maximal Respiration: Following FCCP injection, the highest oxygen consumption rate is measured, representing the maximum capacity of the mitochondria to utilize oxygen for respiration. • Spare Respiratory Capacity: This parameter is calculated by subtracting basal respiration from maximal respiration."}, "[4]": {"system": "SURF1-mutant midbrain organoids", "assay": "Neuronal staining (TH, MAP2, SMI312) in SURF1-mutant midbrain organoids", "protocol": "as §1, §2\nFIG. 29A depicts lactate released in the media by SURF1-mutant midbrain organoids compared to isogenic control organoids. The amount of lactate was quantified using a commercial kit. […] FIG. 29B depicts quantification of lactate in the media of SURF1-mutant midbrain organoids that were treated with either DMSO vehicle or 0.1 μM Sertaconazole for 1 week Media was collected and analyzed for lactate content using a commercial kit. […] SURF1-mutant midbrain organoids were treated with either the DMSO vehicle or 0.1 μM Sertaconazole for 1 week. The organoids were then fixed and stained with antibodies against Tyrosine Hydroxylase (TH) (a marker of dopaminergic neurons), MAP2 (a marker for neuronal dendrites), and SMI312 (a marker for neuronal axons). Significant values were calculated using the non-parametric Mann-Whitney test. […] Sertaconazole can represent an effective repositionable drug for children affected by Leigh syndrome."}, "[5]": {"system": "GM28012 SURF1 fibroblasts", "assay": "Seahorse mitochondrial stress test, fibroblast cell line GM28012 (Experiment 3, single compounds)", "conditions": "48 h", "protocol": "as §4, §5\nGM28010 primary human fibroblasts obtained from patients with SURF1 Leigh syndrome were purchased from the Coriell Cell Repositories (Camden, N.J.; repository number GM28010).\nGM00038 primary human fibroblasts purchased from the Coriell Cell Repositories (Camden, N.J., repository number GM00038) and were used as a healthy control.\nFibroblasts were grown in glucose according to recommendation. Cells were plated in XF96 plates in culture medium and plated at 10,000 cells/well. The day after plating, the cells were treated with the compounds. The treatments completed in glucose medium and galactose medium. The compounds were tested at for 48 hours. The compounds were incubated at (37 C, 5% CO2) until the day of the experiment. The fibroblasts were run at passage numbers: GM28012 SURF1 Fibroblasts P5.\nThe assay medium was 10 mM glucose or galactose DMEM supplemented with 2 mM glutamine and 1 mM pyruvate. Injection Ports for basal glucose: Port A: 2 μM oligomycin; Port B: 2.5 μM FCCP; Port C: 4 μM FCCP; and Port D: 2 μM rotenone and antimycin A.\nThe data were normalized to cell number per well after the run. The Hoechst-stained nuclei were counted with a Operetta High-Content Imager."}, "[6]": {"conditions": "glucose and galactose conditions"}},
  "note": "Entries after “also recorded” stand apart in the source; their conditions may differ.",
  "data": [
    {"smiles": "Clc1ccc(C(Cn2ccnc2)OCc2csc3c(Cl)cccc23)c(Cl)c1", "note": "(stereo not shown) [Sertaconazole, sertaconazole]", "values": [
      {"measurement": "amount of lactate released to the media", "setting": "[1]", "result": "reduced the aberrant release of lactate; also recorded: decreases the aberrant amount of lactate"},
      {"measurement": "total neurite area (defective neurite development in SURF1-mutant cells)", "setting": "[2]; 5 days after NGN2 induction, vs DMSO, Mann-Whitney **p<0.01", "result": "correction of defective neurite development"},
      {"measurement": "neuromorphogenesis defects in SURF1-mutant neurons", "setting": "[2]; FIG. 28", "result": "ameliorates neuromorphogenesis defects"},
      {"measurement": "rescue of neurite outgrowth capacity", "setting": "[2]; NGN2-induced SURF1 mutant neurons, FIG. 28", "result": "dose-dependent rescue of neurite outgrowth capacity"},
      {"measurement": "ATP production", "setting": "[3]", "result": "no effect on ATP production"},
      {"measurement": "maximal OCR", "setting": "[3]; all concentrations", "result": "↓ maximal OCR@ all conc;"},
      {"measurement": "respiration", "setting": "[3]; [6]", "result": "did not result in major changes"},
      {"measurement": "amount of TH-positive dopaminergic neurons", "setting": "[4]; 0.1 μM, 1 week, vs DMSO", "result": "increased the amount of TH-positive dopaminergic neurons; also recorded: increase in TH neurons was evident but did not reach statistical significance"},
      {"measurement": "overall neuronal branching organization", "setting": "[4]; 0.1 μM, 1 week, vs DMSO", "result": "rescued the overall neuronal branching organization"},
      {"measurement": "amount of neuronal processes", "setting": "[4]; 0.1 μM, 1 week, vs DMSO, Mann-Whitney *p<0.05", "result": "corrected the increased the amount of neuronal processes"},
      {"measurement": "neuromorphogenesis and lactate defects in SURF1-mutant midbrain organoids", "setting": "[4]; FIG. 29", "result": "ameliorates neuromorphogenesis and lactate defects"},
      {"measurement": "respiration", "setting": "[5]; [6]", "result": "decreased respiration"},
      {"measurement": "ATP production through glycolysis", "setting": "[5]; higher concentrations", "result": "increased ATP production through glycolysis; also recorded: lower concentration; ↑ATP"}
    ]}
  ]
}
